Measurements: patent US20160366886A1, “BIOCIDAL COMPOSITION, PREPARATION AND METHODS OF USE THEREOF” (BROMINE COMPOUNDS LTD., priority 2014, published 2016)

What was measured:
[1] = test system: Pseudomonas aeruginosa (ATCC 15442); experiment: Biocidal activity against simulated biofilm (bacteria entrapped in alginate gel beads), surviving CFU; format: cell-based; conditions: for time of total kill: alginate beads, pH 7
Excerpt: A biofilm simulation system developed by the Biofilm Bozeman Institute Montana (Grobe K. J., Zahler J., and Stewart P. S., 2002 in “Role of dose concentration in biocide efficacy against Pseudomonas aeruginosa Biofilms”, J. Industrial Microbiology & Biotechnology, vol. 29, pp 10-15), was used in this experiment to evaluate the efficacy of biocidal solutions against biofilm.
The biofilm simulation was created by entrapping bacteria in alginate gel beads. A plate of R2A agar was streaked with Pseudomonas aeruginosa (ATCC 15442) and incubated at 35° C. overnight. Buffer phosphate at pH 7.2 was used to scrap off the bacteria from the agar plate and to create a suspension. The bacterial suspension was mixed with an equal volume of an aqueous 4% sodium alginate solution, to make a final 2% alginate solution. The alginate and bacterial slurry were placed in a 50 ml syringe attached to a 22 gauge needle, connected to a compressed air tank, allowing the syringe to be pressurized. At 20 psig pressure a stream of small drops was forced out and dropped into a stirred solution of 50 mM CaCl2. The Ca^+2 cross linked the alginate, and semi solid beads with entrapped bacterial cells were formed. The beads were allowed to stir in the CaCl2 solution for about 20 minutes, and then rinsed in a dilute 5 mM CaCl2 solution. Several flasks containing 100 beads each were incubated overnight at 35° C. on a rotating shaker in a buffer solution (at pH 7) with 5 mM addition of CaCl2 to maintain the beads structure. The resulting beads diameter is about 2 mm
At the beginning of the experiment, the supernatant of the beads buffer suspension containing 5 mM CaCl2 was decanted and replaced by the 100 ml biocide solution with the required concentration (between 0.5, 1, 2.5 and 5 ppm as total Cl2).
After different interval contact times, 10 beads were removed and placed in a 5 g/l sodium thiosulfate solution containing 50 mM sodium citrate. The sodium citrate was used to dissolve the alginate gel and release the bacteria into the solution. The neutralizer-citrate solution was placed in the refrigerator for 2 hours, than diluted and placed on R2A agar plates using pour plate technique. The plates were incubated at 35° C. for 24-48 hours and counted. The efficacy and toxicity of the neutralizer were checked as well as a control experiment without biocide addition. Four concentrations (0.5, 1, 2.5 and 5 ppm) were tested at four different contact times (5, 15, 30, and 60 min) FIGS. 1-10 describe the surviving colony forming units (CFU) of the bacteria after the biocide treatment at different contact times.

[2] = Stability of the aqueous biocide solution (total active chlorine as Cl2 over time); format: physicochemical
Excerpt: The concentration of the active chlorine is based on the measurement of total chlorine (as Cl2). The term “as Cl2” refers to the measurement of the active chlorine as total chlorine.

[3] = 1 ppm dose, contact time not stated

SMILES | effect on the microbe concentration ([1]; 0.5 ppm dose) | effect on the microbe concentration ([1]; 1 ppm dose) | log reduction of microbe concentration [1, 3] | time of total kill ([1]; 2.5 ppm dose (as total Cl2)) | time of total kill ([1]; 5 ppm dose (as total Cl2)) | log reduction of microbe concentration ([1]; 0.5 ppm dose, contact time not stated) | active chlorine reading (as Cl2) ([2]; after 20.3 hrs) | active chlorine remaining, percent of initial ([2]; after 20.3 hrs) | active chlorine reading (as Cl2) ([2]; after 44.4 hrs) | active chlorine remaining, percent of initial ([2]; after 44.4 hrs) | time the solution / active Cl2 level stayed stable (unchanged) ([2]; aqueous solution about 500 ppm as Cl2) | total active Cl2 found after mixing ([2]; freshly mixed solution, expected 500 ppm as Cl2) | log reduction of microbe concentration ([1]; 2.5 ppm dose, after 60 min) | log reduction of microbe concentration ([1]; 2.5 ppm dose, contact time not stated)
O=c1n(Cl)c(=O)n(Cl)c(=O)n1Cl [TCCA, trichloroisocyanuric acid] | almost no activity | almost no activity | 1 log | 60 min | 30 min |  |  |  |  |  |  |  |  | 
NCl [chloramine] |  |  |  |  |  | 4 log | 493 ppm | 91% | 223 ppm | 41.4% | 2 h | 539 ppm |  | 
[Na+].[O-]Cl [NaOCl] | no effect was observed at all |  | 1 log |  | 60 min |  |  |  |  |  |  |  | 1 log | 1 log
O=c1nc([O-])n(Cl)c(=O)n1Cl.[Na+] [NaDCC, sodium dichloroisocyanurate] | almost no activity | almost no activity | 1 log | 60 min | 30 min |  |  |  |  |  |  |  | more than 4 log | 
